Source: patent publication US12564641B2 (EISAI R&D MANAGEMENT CO., LTD., priority 2019, dated 2026)
pIC50: −log10 of the molar value. Where two headings read alike, the source gives them in different places.

Columns and labels:
HEC-251 cells = assay: In vitro cytotoxicity analysis (Crystal Violet), HEC-251; type: cell-based; conditions: Homo sapiens
Procedure: (§1) Plates were read at 570 nm. Data was analyzed using GraphPad Prism 6.

human NSCLC PDX LC-F-25 = assay: Human NSCLC PDX model LC-F-25; type: in vivo, mouse
Procedure: Statistical analysis: Statistical analysis was performed for each measurement by a Mann-Whitney non-parametric comparison test. Each treated group was compared with the control group.

A431 cells = assay: In vitro cytotoxicity analysis (Crystal Violet), A431; conditions: Homo sapiens, A-431, read-out: Cell based Cytotoxicity assay, EC50 (nM) A431-6 hr; treated with ADC for 6 hours then washed off
Procedure: as §1
(§2) All ADCs were purified and characterized using SEC-HPLC for aggregation analysis, HIC-HPLC for DAR analysis, and cell-based assay with A431-A3 (MSLN^hi), A431 (MSLN^lo), and OVCAR3 (MSLN^hi) cell lines.

human NSCLC PDX LXFL-529 = assay: Human NSCLC PDX model LXFL-529
Source text: (§3) Animals: Female NMRI nu/nu mice, 4 to 6 weeks of age.
Xenotransplantation: LXFL-529 established growing tumor (T3N1M0) from a primary non-small cell lung adenocarcinoma human patient.
Experimental procedure: Animals were monitored until the tumor implants reached the study volume criteria of 50-250 mm^3 (e.g., 80-200 mm^3) in a sufficient number of animals. […] The process of the assignment to groups (enrollment, stratified randomization) may also be referred to as randomization. The day of randomization was designated as day 0 of the experiment.
(§4) Tumors were measured and mice were weighed twice a week during the experimental period. The first day of dosing was day 1, one day after randomization (day 0).

[1] = test system: human mesothelioma PDX Meso7212; assay: Human mesothelioma PDX model Meso7212 (Example 3)
Procedure: NMRI nu/nu female mice (Janvier Labs, 5-6 weeks) were acclimated for at least 4 days upon arrival prior to inoculation. Animals was housed 3-5 mice per ventilated cage with sterilized food pellets and water bottle available ad lib. Animals were ear marked and weighed prior to study initiation.
Donor tumor tissue was cut into 2×2 mm fragments and placed in a sterile Petri dish covered with 0.9% saline. In parallel, the receptor animals were subcutaneously treated with the analgesic Metacam® (2 mg/kg) and then anaesthetized by a single intravenous injection (0.15 mL/mouse) with Etomidat-Lipuro® (12 mg/kg). A superficial vertical incision in the skin of 5-8 mm on the left flank was performed. The tip of a surgical scissor was inserted into the incision, directly over the flank, and was used to form a pocket in the subcutaneous space. One tumor fragment per mouse was implanted into the pocket using surgical tweezers. The incision was closed with a metal clip and the animals were placed back into a clean cage.
During tumor propagation, tumor diameters were measured using a digital caliper (Mitutoyo). Animals were randomly assigned into experimental groups according to their tumor volume (inclusion criteria for tumor volume, 0.1-0.3 cm^3). Tumor volumes and body weights were recorded twice weekly.
The administration volume was 10 mL/kg for intravenous injections throughout all experimental groups.
Descriptive statistics were performed on the data for tumor volume and body weight. Tumor volumes of animals from each treatment group were compared with the control group by using a repeated-measures two-way ANOVA, followed by a Bonferroni post-test. Additionally, the comparison of tumor growth of animals within each group was also performed with the same statistical analysis.

[2] = test system: human mesothelioma HAY xenograft
Procedure: Female CD-1 IGS mice (Charles River, 7-9 weeks old) were used for the maximum tolerated dose (MTD) study, female NOD.CB17-SCID mice (Jackson Laboratory) were used for the NCI-H2110 and HAY xenograft studies, and female NCr nude mice (Taconic, 5 weeks old) were used for the NCI-N87 xenograft studies. Upon arrival, animals were acclimated for 5-7 days prior to inoculation.
Cryopreserved NCI-H2110, NCI-N87, or HAY cells from frozen stocks were cultured in medium containing necessary supplements.
Mice were injected subcutaneously with 100 μL/mouse of cell mixture and monitored for body weight and tumor growth.
Mice were randomized to five mice per group once tumor implants reached an average volume of 100 mm^3. Treatment was given intravenously at a volume of 200 μL. Terminal body weight was measured and recorded at the end of each study.
Comparison of tumor growth within each experimental group was also performed using the same statistical analysis.

OVCAR3 cells = assay: In vitro cytotoxicity analysis (Crystal Violet), OVCAR3; type: cell-based; conditions: Homo sapiens
Procedure: as §1, §2

[3] = test system: A3 (A431 stably transfected with human mesothelin) cells; assay: In vitro cytotoxicity analysis (Crystal Violet), A3; type: cell-based
Procedure: as §1
Fifteen anti-mesothelin antibodies were sub-cloned, scale-up expressed and purified, and conjugated using maleimide-VCP-eribulin as payload at the Cys80 position. All ADCs were purified and characterized using SEC-HPLC for aggregation analysis, HIC-HPLC for DAR analysis, and cell-based assay with A431-A3 (MSLN^hi), A431 (MSLN^lo), and OVCAR3 (MSLN^hi) cell lines. […] Based on the characterization data below, six antibodies (bolded) were selected for humanization.

human NSCLC PDX LXFA-737 = test system: human NSCLC PDX LXFA-737
Procedure: Animals: Female NMRI nu/nu mice (Crl:NMRI-Foxn1nu), 4 to 6 weeks of age.
Experimental procedure: Animals were monitored until the tumor implants reached the study volume criteria of 50-250 mm^3 (e.g., 80-200 mm^3) in a sufficient number of animals. […] The day of randomization was designated as day 0.
as §4
Statistical analysis: Inhibition of Tumor Growth, Test/Control Value in % (Min. T/C): The test versus control value (T/C in %) was calculated from the ratio of the median residual tumor volume (RTV) values of test versus control groups on day X multiplied by 100. Tumor volume doubling and quadrupling time (Td, Tq) for test and control groups was defined as the time interval (in days) required for a group to reach a median RTV of 200% or 400%.

MSLN-negative cell lines = assay: In vitro cytotoxicity (IC50, Crystal Violet) on MSLN-negative cell lines (Example 11); type: cell-based; conditions: for pIC50: Homo sapiens, read-out: In vitro cell based potency, IC50
Procedure: Plates were incubated at 37° C. 5% CO2 for an additional 5 days. […] Plates were read at 570 nm.

human NSCLC PDX LXFA-586 = assay: Human NSCLC PDX model LXFA-586
Source text: as §3
Xenotransplantation: LXFA-586 established growing tumor (T2N1M0) from a primary non-small cell lung adenocarcinoma human patient.
Experimental procedure: Animals were monitored until the tumor implants reached the study volume criteria of 50-250 mm^3 (e.g., 80-200 mmi) in a sufficient number of animals. […] The process of the assignment to groups (enrollment, stratified randomization) may also be referred to as randomization. The day of randomization was designated as day 0 of the experiment.
as §4

[4] = eribulin single dose of 0.1 mg/kg i.v.
[5] = eribulin single dose of 3.2 mg/kg i.v.

With `C=C1C[C@@H]2CC[C@@]34C[C@H]5O[C@H]6[C@@H](O3)[C@H]3O[C@H](CC[C@@H]3O[C@H]6[C@H]5O4)CC(=O)C[C@@H]3[C@@H](OC)[C@@H](C[C@H](O)CN)O[C@H]3C[C@H]3O[C@@H](CC[C@@H]1O2)C[C@@H](C)C3=C` [Eribulin, eribulin, reference compound] the EC50 (HEC-251 cells; HEC-251, 120 h, Table 18, 5 days, read-out: Cell-Based Cytotoxicity Assay, EC50 (nM) HEC-251) was 0.2 nM, the EC50 (HEC-251 cells; HEC-251, Table 19, payloads, read-out: Cell-Based Cytotoxicity Assay EC50 (nM) HEC-251) was 0.2 nM and the tolerability (human NSCLC PDX LC-F-25; [4]) was “well tolerated”. The tumor growth inhibition (human NSCLC PDX LC-F-25; [4]) was “did not induce statistically significant tumor growth inhibition”, the tolerability / bodyweight (human NSCLC PDX LC-F-25; eribulin single dose of 3.2 mg/kg (mouse MTD) i.v., from 3 to 10 days after administration) was “slight and transient bodyweight loss” and the partial tumor regressions (human NSCLC PDX LC-F-25; [5]) was 6 out of 8. The tumor growth inhibition (human NSCLC PDX LC-F-25; [5]) was “statistically significant tumor growth inhibition”, the EC50 (A431 cells) was 2.86 nM and the anti-tumor efficacy (human NSCLC PDX LXFL-529; eribulin single dose of 3.2 mg/kg (mouse MTD) i.v.) was “showed anti-tumor efficacy”. The tolerability / bodyweight (human NSCLC PDX LXFL-529; mouse, in vivo, iv, 3.2 mg/kg) was “slight and transient bodyweight loss”, the anti-tumor effect ([1]; Meso7212 (MV15369), eribulin alone 0.2 mg/kg (equivalent molar amount)) was “limited anti-tumor effects” and the body weight change ([1]; Meso7212 (MV16071), eribulin 0.3 mg/kg) was “No body weight loss”. For the same compound, the anti-tumor effect ([1]; Meso7212 (MV16071), eribulin alone 0.3 mg/kg (equivalent molar amount)) was “limited or no anti-tumor effects”, the anti-tumor effect ([2]; eribulin alone 0.1 mg/kg (equivalent molar amount as in MORAb-109)) was “limited anti-tumor effects” and the anti-tumor effect ([2]; eribulin alone at the MTD (3.2 mg/kg)) was “limited anti-tumor effects”. It also gave an EC50 (OVCAR3 cells; OVCAR-3, read-out: Cell based Cytotoxicity assay, EC50 (nM) OVCAR3-6 hr, treated with ADC for 6 hours then washed off) of 2.81 nM, an EC50 (OVCAR3 cells; OVCAR-3, read-out: Cell based Cytotoxicity assay, EC50 (nM) OVCAR3-72 hr, treated for 72 hours) of 0.25 nM and an EC50 ([3]; A-431, 120 h, Table 18, 5 days, read-out: Cell-Based Cytotoxicity Assay, EC50 (nM) A3) of 1.03 nM. The EC50 ([3]; A-431, Table 19, payloads, read-out: Cell-Based Cytotoxicity Assay EC50 (nM) A3) was 1.03 nM, the EC50 ([3]; A-431, read-out: Cell based Cytotoxicity assay, EC50 (nM) A3-6 hr, treated with ADC for 6 hours then washed off) was 4.08 nM and the EC50 ([3]; A-431, read-out: Cell based Cytotoxicity assay, EC50 (nM) A3-48 hr, treated for 48 hours) was 1.09 nM. For the same compound, the “minimum T/C” value (human NSCLC PDX LXFA-737; eribulin single dose of 0.2 mg/kg, on day 44) was 51.1%, the “Tq (tumor volume quadrupling time)” value (human NSCLC PDX LXFA-737; [5]) was 80.1% and the “minimum T/C” value (human NSCLC PDX LXFA-737; eribulin single dose of 3.2 mg/kg i.v., on day 27) was 4.2%. The tolerability / bodyweight (human NSCLC PDX LXFA-737; mouse, in vivo, iv, 3.2 mg/kg) was “slight and transient bodyweight loss”, the “% Max Killing” value (MSLN-negative cell lines; A431 cells (MSLN MFI 5.6)) was 93.04% and the “% Max Killing” value (MSLN-negative cell lines; BxPC3 cells (MSLN MFI 15.59)) was 97.28%. The pIC50 (MSLN-negative cell lines; A-431, A431 cells (MSLN MFI 5.6)) was 9.74, the pIC50 (MSLN-negative cell lines; BXPC-3, BxPC3 cells (MSLN MFI 15.59)) was 9.89 and the pIC50 (MSLN-negative cell lines; SK-OV-3, SKOV3 cells (MSLN MFI 20)) was 9.85. For the same compound, the “% Max Killing” value (MSLN-negative cell lines; SKOV3 cells (MSLN MFI 20)) was 72.82%, the “minimum T/C” value (human NSCLC PDX LXFA-586; eribulin single dose of 3.2 mg/kg i.v., on day 21) was 14.8% and the tolerability / bodyweight (human NSCLC PDX LXFA-586; mouse, in vivo, iv, 3.2 mg/kg) was “slight and transient bodyweight loss”.
